From ChEMBL document CHEMBL1130359, “In vivo immunosuppressive activity of some cyclolignans” (Bioorg Med Chem Lett, 1997)
≈ marks a conversion by molar mass, not a printed value.

Columns and labels:
Mus musculus [1] = experiment: Tested in vivo for immunosuppressive activity in mouse using allogenic skin grafting technique(SG); mean graft survival at a dose of 15.0 mg/kg.; assay type: functional
Mus musculus [2] = experiment: Tested in vivo for immunosuppressive activity in mouse using allogenic skin grafting technique(SG); weight at a dose of 15 mg/kg; assay type: functional
Mus musculus [3] = experiment: Tested in vivo for immunosuppressive activity in mouse using allogenic skin grafting technique(SG); graft survival relative to cyclophosphamide at a dose of 1.5 mg/kg; assay type: functional
Mus musculus [4] = experiment: Tested in vivo for immunosuppressive activity in mouse using allogenic skin grafting technique(SG); graft survival relative to cyclophosphamide at a dose of 15.0 mg/kg; assay type: functional
Mus musculus [5] = experiment: Tested in vivo for immunosuppressive activity in mouse using graft vs. Host rejection technique(GVHR); weight at a dose of 15 mg/kg; assay type: functional
Mus musculus [6] = experiment: Tested in vivo for immunosuppressive activity in mouse using graft vs. Host rejection technique(GVHR); weight change at a dose of 15.0 mg/kg; assay type: functional
[7] = Non-cytotoxic IMS activity (ratio LcV/MLR) was determined; assay type: functional
Mus musculus [8] = experiment: Tested in vivo for immunosuppressive activity in mouse using allogenic skin grafting technique(SG); mean graft survival at a dose of 1.5 mg/kg; assay type: functional
Mus musculus [9] = experiment: Tested in vivo for immunosuppressive activity in mouse using graft vs. Host rejection technique(GVHR); weight change at a dose of 0.15 mg/kg; assay type: functional
Mus musculus [10] = experiment: Tested in vivo for immunosuppressive activity in mouse using graft vs. Host rejection technique(GVHR);% suppression at a dose of 0.15 mg/kg; assay type: functional
Mus musculus [11] = species: Mus musculus; experiment: Tested for immunosuppressive activity in mouse using allogenic MLR method; assay type: functional, organism-based
Mus musculus [12] = experiment: Tested in vivo for immunosuppressive activity in mouse using allogenic skin grafting technique(SG); weight at a dose of 0.15 mg/kg; assay type: functional
Mus musculus [13] = experiment: Tested in vivo for immunosuppressive activity in mouse using graft vs. Host rejection technique(GVHR); % suppression at a dose of 15.0 mg/kg.; assay type: functional
Mus musculus [14] = experiment: Tested in vivo for immunosuppressive activity in mouse using allogenic skin grafting technique(SG); weight lost at a dose of 0.15 mg/kg; assay type: functional
Mus musculus [15] = experiment: Tested in vivo for immunosuppressive activity in mouse using graft vs. Host rejection technique(GVHR); body weight at a dose of 0.15 mg/kg.; assay type: functional
Mus musculus [16] = experiment: Tested in vivo for immunosuppressive activity in mouse using allogenic skin grafting technique(SG); mean graft survival at a dose of 0.15 mg/kg; assay type: functional
Mus musculus [17] = experiment: Tested in vivo for immunosuppressive activity in mouse using graft vs. Host rejection technique(GVHR); spleen index at a dose of 1.5 mg/kg; assay type: functional
Mus musculus [18] = experiment: Tested in vivo for immunosuppressive activity in mouse using graft vs. Host rejection technique(GVHR); spleen index at a dose of 0.15 mg/kg; assay type: functional
Mus musculus [19] = experiment: Tested in vivo for immunosuppressive activity in mouse using graft vs. Host rejection technique(GVHR); spleen index at a dose of 15.0 mg/kg; assay type: functional
[20] = Tested in vitro for cytotoxicity against […](LcV) in cells; assay type: functional
Mus musculus [21] = experiment: Tested in vivo for immunosuppressive activity in mouse using graft vs. Host rejection technique(GVHR); spleen weight normalized to D8 body weight at a dose of 0.15 mg/kg; assay type: functional
Mus musculus [22] = experiment: Tested in vivo for immunosuppressive activity in mouse using graft vs. Host rejection technique(GVHR); % suppression at a dose of 1.5 mg/kg; assay type: functional
Mus musculus [23] = experiment: Tested in vivo for immunosuppressive activity in mouse using graft vs. Host rejection technique(GVHR); body weight at a dose of 15.0 mg/kg; assay type: functional
Mus musculus [24] = experiment: Tested in vivo for immunosuppressive activity in mouse using graft vs. Host rejection technique(GVHR); spleen weight normalized to D8 body weight at a dose of 15.0 mg/kg; assay type: functional
Mus musculus [25] = experiment: Tested in vivo for immunosuppressive activity in mouse using graft vs. Host rejection technique(GVHR); body weight at a dose of 1.5 mg/kg; assay type: functional
Mus musculus [26] = experiment: Tested in vivo for immunosuppressive activity in mouse using graft vs. Host rejection technique(GVHR); spleen weight normalized to D8 body weight at a dose of 1.5 mg/kg; assay type: functional
Mus musculus [27] = experiment: Tested in vivo for immunosuppressive activity in mouse using allogenic skin grafting technique(SG); graft survival relative to cyclophosphamide at a dose of 0.15 mg/kg; assay type: functional
Mus musculus [28] = experiment: Tested in vivo for immunosuppressive activity in mouse using allogenic skin grafting technique(SG); weight lost at a dose of 1.50 mg/kg; assay type: functional; conditions: dose 1.5 mg/kg
Mus musculus [29] = experiment: Tested in vivo for immunosuppressive activity in mouse using graft vs. Host rejection technique(GVHR); weight change at a dose of 1.5 mg/kg.; assay type: functional
Mus musculus [30] = experiment: Tested in vivo for immunosuppressive activity in mouse using allogenic skin grafting technique(SG); weight at a dose of 1.50 mg/kg; assay type: functional; conditions: dose 1.5 mg/kg

COc1cc([C@@H]2c3cc(O)c(O)cc3[C@H](O)[C@H]3COC(=O)[C@H]23)cc(OC)c1OC [6,7-O,O-DEMETHYLENEPODOPHYLLOTOXIN]
Mean graft survival (Mus musculus [1]): 10.7 days
Body weight (Mus musculus [2]): 1.6 g
graft survival (Mus musculus [3]): 1.28 days
graft survival (Mus musculus [4]): 1.09 days
Body weight (Mus musculus [5]): 17.8 g
Weight change (Mus musculus [6]): 1.8%
Ratio [7]: >4885
Mean graft survival (Mus musculus [8]): 12.5 days
Weight change (Mus musculus [9]): -1.8%
Activity (Mus musculus [10]): 167%
IC50 (Mus musculus [11]): 5.63 ng/mL (≈ 0.014 µM)
Body weight (Mus musculus [12]): 18.7 g
Activity (Mus musculus [13]): 44%
Body weight (Mus musculus [14]): 0.7 g
Body weight (Mus musculus [15]): 16.5 g
Mean graft survival (Mus musculus [16]): 10 days
SI (Mus musculus [17]): 1.04
SI (Mus musculus [18]): 0.82
SI (Mus musculus [19]): 1.15
Cytotoxicity [20]: >27.5 µg/mL
Spleen weight (Mus musculus [21]): 4.1 g
Activity (Mus musculus [22]): 85%
Body weight (Mus musculus [23]): 16.3 g
Spleen weight (Mus musculus [24]): 5.75 g
Body weight (Mus musculus [25]): 16.8 g
Spleen weight (Mus musculus [26]): 5.2 g
graft survival (Mus musculus [27]): 1.02 days
Body weight (Mus musculus [28]): 1 g
Weight change (Mus musculus [29]): 2.9%
Body weight (Mus musculus [30]): 18.5 g
